Laboratory results as given in ChEMBL document CHEMBL1201862, “PubChem BioAssay data set” (2004).
Calls of active or inactive are those of the source.

Key:
[1] = blockers of bursicon-stimulated LGR2 cAMP reporter – cell-based, HEK293, CRE-luciferase reporter, cherry pick, set 2, dose response (AID 743343); type: functional;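 note: transfected cells were stimulated with diluted bursicon conditioned medium after compound addition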
HEK293 [2] = test: cells; type: functional, cell-based; conditions: Homo sapiens
HEK293 [3] = test: inhibition of NOD1-driven NF-kB reporter – cell-based, luminescence, uHTS, primary screen (AID 1578); type: functional; conditions: Homo sapiens
[4] = loss of viability in HepG2 cells – cell-based, CellTiter-Glo, cherry-picked, cytotoxicity control for Shn3 inhibitor project, dose response (AID 624134); type: functional
[5] = non-specific 3'UTR reporter inhibition in Clone20-Shn3RL – cell-based, Renilla luciferase, cherry-picked, counter-screen for Shn3 inhibitor project, dose response (AID 624133); type: functional
[6] = viability loss in HEK293 cells – cell-based, plate reader, cherry-picked samples, cytotoxicity control, dose response (AID 743446); type: functional
[7] = blockade of melanocortin 4 receptor signaling – cell-based, plate reader, cherry pick, counter-screen for LGR2 antagonist project, dose response (AID 743444); type: functional;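 note: transfected HEK 293 cells stimulated with alpha-MSH peptide; potency of inhibitors of the alpha-MSH evoked signal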
HEK293 [8] = test: cells; type: functional, cell-based; conditions: Homo sapiens; remark: listed apart in the source
[9] = reduction of Shn3 3'UTR-driven luciferase in osteoblasts – cell-based, Clone20 osteoblasts, firefly luciferase, cherry-picked, dose response (AID 624132); type: functional;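 note: firefly luciferase luminescence from reporter carrying the Shn3 3'UTR in osteoblasts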
[10] = target: Nucleotide-binding oligomerization domain-containing protein 2 (Homo sapiens, UniProt Q9HC29); test: inhibition of NOD2-driven NF-kB reporter – cell-based, luminescence, uHTS, HEK293 (AID 1566); type: functional
HEK293 [11] = test: cells; type: functional, cell-based; conditions: Homo sapiens; remark: listed apart in the source
[12] = target: Neurotensin receptor type 1 (Homo sapiens, UniProt P30989); type: functional;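 note: Image-based confirmatory dose-response assay measuring agonist activity at NTR1; NTR1-expressing U2OS osteosarcoma cells imaged for beta-arrestin GFP spot formation; agonist potency where compounds increase beta-arrestin recruitment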
[13] = toxicity toward HepG2 liver cells – cell-based, plate reader, cherry-pick, antagonist series, cytotoxicity control, dose response (AID 743416); type: functional
[14] = target: 1-phosphatidylinositol 4,5-bisphosphate phosphodiesterase gamma-1 (Homo sapiens, UniProt P19174); test: Counterscreen for inhibitors of phospholipase C isozymes (PLC-B3): Fluorescence-based biochemical high throughput dose response assay to identify inhibitors of phospholipase C isozymes (PLC-gamma1).
HEK293 [15] = test: NOD2 signaling inhibitors in MDP-stimulated cells, cell-based, uHTS, luminescence (AID 2001); type: functional; conditions: Homo sapiens
[16] = A549 cell cytotoxicity, dose response, cytotoxicity control, plate reader, cherry-pick, antagonist series (AID 743412); type: functional, cell-based
[17] = target: 1-phosphatidylinositol 4,5-bisphosphate phosphodiesterase beta-3 (Homo sapiens, UniProt Q01970); test: Fluorescence-based biochemical high throughput dose response assay to identify inhibitors of phospholipase C isozymes (PLC-B3).
[18] = inhibition of ADAM10 peptide cleavage – biochemical, FRET peptide substrate, recombinant human ADAM10, selectivity assay for ADAM17 exosite inhibitor project, dose response (AID 743259);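 note: ADAM10 enzyme cleaving a FRET peptide substrate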
[19] = NIH3T3 cell viability loss – ATP luminescence, mouse fibroblasts, counter-screen, dose response (AID 2010); type: functional, cell-based;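 note: cells exposed to compound for about 90 hours before reading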
[20] = Trypanosoma cruzi growth suppression in host cells – NIH3T3 host cells, beta-gal luminescence, confirmation (AID 2044); type: functional, cell-based;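 note: intracellular parasites grown in NIH/3T3 mouse fibroblasts as host cells; luminescent beta-galactosidase reporter signal from transgenic T. cruzi replicating inside host cells; inhibitors lower the luminescence signal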
[21] = target: T1, Disintegrin and metalloproteinase domain-containing protein 17 (Homo sapiens, UniProt P78536); test: exosite inhibitors of ADAM17, dose response, biochemical (AID 743260)
[22] = A Cell-Based Confirmatory Screen for Compounds that Inhibit VEEV, TC-83 (3).; type: functional
[23] = target: NAD-dependent protein deacylase sirtuin-5, mitochondrial (Homo sapiens, UniProt Q9NXA8); test: sirtuin-5 deacylation blockers, concentration series – biochemical, fluorescence imaging, cherry-pick, set 5, dose response (AID 720591);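 note: desuccinylation of succinyl peptide AMC substrate read as fluorescence after trypsin release; potency of inhibitors that lower fluorescence and may act on trypsin instead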
[24] = target: T1, Disintegrin and metalloproteinase domain-containing protein 17; test: inhibition of ADAM17 substrate cleavage – biochemical, quenched FRET substrate, counter-screen for ADAM10 exosite inhibitor project, dose response (AID 743253)
[25] = Luminescence Cell-Based Dose Retest to Confirm Inhibitors of Cancer Stem Cells. [Related pubchem assays (depositor defined):AID2717, AID2721]; type: functional; conditions: Homo sapiens
Streptococcus = test: GAS UMAA2166 growth inhibition – luminescence, BacTiterGlo, counter-screen for streptokinase expression inhibitor project, dose response (AID 1915); type: functional, organism-based;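 note: potency for reduction of bacterial viability or growth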
Streptokinase A = target: T2, Streptokinase A (Streptococcus pyogenes serotype M1, UniProt P10520); test: viability-normalized secreted streptokinase activity reduction – plasminogen activation absorbance, OD405, dose response (AID 1914); type: functional, Streptococcus pyogenes M1 GAS;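 note: secreted streptokinase activity via plasminogen activation per viability signal from cell pellet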
T2 sequence (P10520 whole entry): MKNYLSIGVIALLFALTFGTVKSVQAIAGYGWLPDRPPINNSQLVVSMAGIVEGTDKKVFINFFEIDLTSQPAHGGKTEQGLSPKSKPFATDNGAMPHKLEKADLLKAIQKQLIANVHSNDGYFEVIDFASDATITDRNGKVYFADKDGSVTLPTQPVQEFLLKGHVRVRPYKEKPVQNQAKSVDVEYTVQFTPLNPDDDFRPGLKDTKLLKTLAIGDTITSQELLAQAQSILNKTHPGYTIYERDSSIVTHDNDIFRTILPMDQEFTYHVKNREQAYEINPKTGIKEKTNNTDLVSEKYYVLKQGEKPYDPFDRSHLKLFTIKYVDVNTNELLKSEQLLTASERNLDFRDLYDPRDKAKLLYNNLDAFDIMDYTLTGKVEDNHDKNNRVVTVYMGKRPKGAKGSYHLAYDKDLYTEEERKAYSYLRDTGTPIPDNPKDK

[26] = system: Streptococcus sp. 'group A'; test: Streptococcus pyogenes SK(-)GAS viability under kanamycin – luminescence, BacTiterGlo, confirmation, counter-screen for streptokinase expression inhibitor project, dose response (AID 1900); type: functional, organism-based
[27] = target: Nuclear receptor subfamily 0 group B member 1 (Homo sapiens, UniProt P51843); type: functional, cell-based;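 note: HEK293T cells transfected with SF-1 and DAX-1 plus StAR promoter luciferase reporter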
cells = type: functional, cell-based
[28] = target: T3, Scavenger receptor class B member 1 (Mus musculus, UniProt Q61009); test: blockers of DiI-HDL lipid transfer via SR-BI – cell-based, ldlA[mSR-BI] CHO, DiI fluorescence, dry powder, set 10, dose response (AID 624029); type: functional
[29] = target: T3, Scavenger receptor class B member 1; test: mouse SR-BI DiI-HDL transfer blockers – ldlA[mSR-BI] CHO cells, fluorescence plate reader, dry powder, set 9, dose response (AID 623880); type: functional, cell-based
HEK293 [30] = test: viability loss in HEK293T cells – cell-based, ATP luminescence, cherry-pick samples, cytotoxicity control, dose response (AID 687005); type: functional; conditions: Homo sapiens;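 note: cells exposed to compound for 48 hours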
Cryptococcus neoformans = test: PubChem AID 686997; type: functional, organism-based
[31] = HEK293 Cytotoxicity Assay Measured in Cell-Based System Using Plate Reader - 7071-01_Inhibitor_Dose_CherryPick_Activity_Set2.; type: functional
HeLa = test: viability loss in HeLa cells – cell-based, ATP luminescence, cherry-pick samples, cytotoxicity control, dose response (AID 687004); type: functional; conditions: Homo sapiens

T1 sequence (P78536 whole entry, the tested form may be a part): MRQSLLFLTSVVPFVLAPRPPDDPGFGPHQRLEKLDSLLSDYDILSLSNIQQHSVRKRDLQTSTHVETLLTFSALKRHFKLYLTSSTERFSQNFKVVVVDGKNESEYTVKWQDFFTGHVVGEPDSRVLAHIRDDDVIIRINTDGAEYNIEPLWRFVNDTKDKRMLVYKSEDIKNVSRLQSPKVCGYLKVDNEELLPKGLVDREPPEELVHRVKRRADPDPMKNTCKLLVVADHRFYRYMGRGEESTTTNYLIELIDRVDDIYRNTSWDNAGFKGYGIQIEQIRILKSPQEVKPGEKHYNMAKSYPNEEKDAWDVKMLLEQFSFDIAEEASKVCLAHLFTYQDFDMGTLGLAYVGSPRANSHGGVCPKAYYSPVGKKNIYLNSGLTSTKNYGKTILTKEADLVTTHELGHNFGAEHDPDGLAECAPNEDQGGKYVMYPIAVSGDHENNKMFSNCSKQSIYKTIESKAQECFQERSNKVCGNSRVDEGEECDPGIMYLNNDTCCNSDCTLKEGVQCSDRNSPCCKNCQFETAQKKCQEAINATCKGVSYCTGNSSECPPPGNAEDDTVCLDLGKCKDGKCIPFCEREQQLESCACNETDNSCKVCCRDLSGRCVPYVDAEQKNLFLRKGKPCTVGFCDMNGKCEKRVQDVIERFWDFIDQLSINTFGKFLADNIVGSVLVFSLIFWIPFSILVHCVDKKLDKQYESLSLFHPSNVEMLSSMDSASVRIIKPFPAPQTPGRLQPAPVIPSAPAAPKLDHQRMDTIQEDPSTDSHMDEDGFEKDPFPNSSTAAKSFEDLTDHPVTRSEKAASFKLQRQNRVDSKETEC
T3 sequence (Q61009 whole entry): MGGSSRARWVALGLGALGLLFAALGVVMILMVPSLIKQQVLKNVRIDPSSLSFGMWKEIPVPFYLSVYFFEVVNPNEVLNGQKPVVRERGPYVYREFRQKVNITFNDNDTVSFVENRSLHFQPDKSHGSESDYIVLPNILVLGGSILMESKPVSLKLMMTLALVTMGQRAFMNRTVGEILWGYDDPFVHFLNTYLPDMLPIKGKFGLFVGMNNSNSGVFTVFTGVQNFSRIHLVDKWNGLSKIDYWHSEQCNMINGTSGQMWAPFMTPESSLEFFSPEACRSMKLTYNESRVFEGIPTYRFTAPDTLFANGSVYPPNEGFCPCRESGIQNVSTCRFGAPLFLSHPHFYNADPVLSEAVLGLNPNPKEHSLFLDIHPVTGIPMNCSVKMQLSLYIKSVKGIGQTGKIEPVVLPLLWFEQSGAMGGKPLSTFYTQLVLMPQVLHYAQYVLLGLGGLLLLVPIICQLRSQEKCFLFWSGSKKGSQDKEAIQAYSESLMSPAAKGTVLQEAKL
Sequence of Nucleotide-binding oligomerization domain-containing protein 2 (Q9HC29 whole entry, the tested form may be a part): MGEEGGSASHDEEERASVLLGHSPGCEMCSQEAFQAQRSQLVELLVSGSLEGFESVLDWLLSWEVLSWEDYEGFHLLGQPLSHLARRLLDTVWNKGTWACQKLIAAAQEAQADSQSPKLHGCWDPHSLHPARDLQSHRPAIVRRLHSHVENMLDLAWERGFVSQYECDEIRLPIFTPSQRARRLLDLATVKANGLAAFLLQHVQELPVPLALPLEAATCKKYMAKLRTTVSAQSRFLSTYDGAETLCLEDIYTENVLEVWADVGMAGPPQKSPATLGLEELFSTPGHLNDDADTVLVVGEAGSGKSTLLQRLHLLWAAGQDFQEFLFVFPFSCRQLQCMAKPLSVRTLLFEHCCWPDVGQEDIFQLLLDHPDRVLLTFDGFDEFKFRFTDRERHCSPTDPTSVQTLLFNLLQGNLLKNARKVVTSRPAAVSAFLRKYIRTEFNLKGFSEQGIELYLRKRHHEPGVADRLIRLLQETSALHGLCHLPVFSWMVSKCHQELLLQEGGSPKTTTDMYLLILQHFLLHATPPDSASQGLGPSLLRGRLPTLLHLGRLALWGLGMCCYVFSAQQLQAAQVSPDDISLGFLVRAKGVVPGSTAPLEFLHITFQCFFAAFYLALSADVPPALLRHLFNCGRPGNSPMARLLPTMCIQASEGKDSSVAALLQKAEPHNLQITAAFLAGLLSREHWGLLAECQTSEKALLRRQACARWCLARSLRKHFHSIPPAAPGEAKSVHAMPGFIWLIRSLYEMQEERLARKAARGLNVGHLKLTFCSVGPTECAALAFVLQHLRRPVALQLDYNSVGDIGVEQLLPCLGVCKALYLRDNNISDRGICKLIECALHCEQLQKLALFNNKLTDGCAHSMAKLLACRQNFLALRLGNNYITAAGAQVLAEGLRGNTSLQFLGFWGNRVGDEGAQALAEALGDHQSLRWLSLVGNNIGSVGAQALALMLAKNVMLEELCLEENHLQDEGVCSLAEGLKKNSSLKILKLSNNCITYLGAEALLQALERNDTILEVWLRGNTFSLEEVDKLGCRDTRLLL
Sequence of NAD-dependent protein deacylase sirtuin-5, mitochondrial (Q9NXA8 whole entry, the tested form may be a part): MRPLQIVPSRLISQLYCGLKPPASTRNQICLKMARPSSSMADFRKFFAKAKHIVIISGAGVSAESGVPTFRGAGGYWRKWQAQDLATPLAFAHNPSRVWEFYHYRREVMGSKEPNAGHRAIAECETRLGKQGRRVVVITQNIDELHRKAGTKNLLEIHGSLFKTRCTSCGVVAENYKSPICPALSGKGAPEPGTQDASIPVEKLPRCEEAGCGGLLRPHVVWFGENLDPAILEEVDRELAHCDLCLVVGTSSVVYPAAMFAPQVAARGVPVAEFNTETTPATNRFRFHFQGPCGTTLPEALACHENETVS
Sequence of Nuclear receptor subfamily 0 group B member 1 (P51843 whole entry): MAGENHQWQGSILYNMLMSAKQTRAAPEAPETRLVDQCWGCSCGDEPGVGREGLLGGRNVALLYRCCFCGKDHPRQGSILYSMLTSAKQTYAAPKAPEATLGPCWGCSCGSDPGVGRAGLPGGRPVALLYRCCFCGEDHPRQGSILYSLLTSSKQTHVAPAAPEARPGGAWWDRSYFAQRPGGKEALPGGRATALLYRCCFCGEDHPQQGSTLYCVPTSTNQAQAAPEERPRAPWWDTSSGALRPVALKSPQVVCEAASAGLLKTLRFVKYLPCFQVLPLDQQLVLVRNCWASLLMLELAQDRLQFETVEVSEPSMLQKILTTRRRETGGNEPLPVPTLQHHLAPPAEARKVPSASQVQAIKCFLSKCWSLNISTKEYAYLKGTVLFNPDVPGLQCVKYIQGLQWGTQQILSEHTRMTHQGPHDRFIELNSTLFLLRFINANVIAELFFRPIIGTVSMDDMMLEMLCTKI
Sequence of Neurotensin receptor type 1 (P30989 whole entry): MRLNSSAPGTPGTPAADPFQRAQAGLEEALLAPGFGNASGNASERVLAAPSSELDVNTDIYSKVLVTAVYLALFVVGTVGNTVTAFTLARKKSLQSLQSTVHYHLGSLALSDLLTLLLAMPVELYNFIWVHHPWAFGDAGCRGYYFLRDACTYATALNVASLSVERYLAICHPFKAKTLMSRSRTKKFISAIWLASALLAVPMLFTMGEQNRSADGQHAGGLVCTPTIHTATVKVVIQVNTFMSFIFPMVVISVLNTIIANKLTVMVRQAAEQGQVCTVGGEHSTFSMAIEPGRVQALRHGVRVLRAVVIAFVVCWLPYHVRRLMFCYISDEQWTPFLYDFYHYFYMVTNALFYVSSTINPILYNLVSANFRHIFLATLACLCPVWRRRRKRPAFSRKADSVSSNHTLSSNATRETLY
Sequence of 1-phosphatidylinositol 4,5-bisphosphate phosphodiesterase beta-3 (Q01970 whole entry): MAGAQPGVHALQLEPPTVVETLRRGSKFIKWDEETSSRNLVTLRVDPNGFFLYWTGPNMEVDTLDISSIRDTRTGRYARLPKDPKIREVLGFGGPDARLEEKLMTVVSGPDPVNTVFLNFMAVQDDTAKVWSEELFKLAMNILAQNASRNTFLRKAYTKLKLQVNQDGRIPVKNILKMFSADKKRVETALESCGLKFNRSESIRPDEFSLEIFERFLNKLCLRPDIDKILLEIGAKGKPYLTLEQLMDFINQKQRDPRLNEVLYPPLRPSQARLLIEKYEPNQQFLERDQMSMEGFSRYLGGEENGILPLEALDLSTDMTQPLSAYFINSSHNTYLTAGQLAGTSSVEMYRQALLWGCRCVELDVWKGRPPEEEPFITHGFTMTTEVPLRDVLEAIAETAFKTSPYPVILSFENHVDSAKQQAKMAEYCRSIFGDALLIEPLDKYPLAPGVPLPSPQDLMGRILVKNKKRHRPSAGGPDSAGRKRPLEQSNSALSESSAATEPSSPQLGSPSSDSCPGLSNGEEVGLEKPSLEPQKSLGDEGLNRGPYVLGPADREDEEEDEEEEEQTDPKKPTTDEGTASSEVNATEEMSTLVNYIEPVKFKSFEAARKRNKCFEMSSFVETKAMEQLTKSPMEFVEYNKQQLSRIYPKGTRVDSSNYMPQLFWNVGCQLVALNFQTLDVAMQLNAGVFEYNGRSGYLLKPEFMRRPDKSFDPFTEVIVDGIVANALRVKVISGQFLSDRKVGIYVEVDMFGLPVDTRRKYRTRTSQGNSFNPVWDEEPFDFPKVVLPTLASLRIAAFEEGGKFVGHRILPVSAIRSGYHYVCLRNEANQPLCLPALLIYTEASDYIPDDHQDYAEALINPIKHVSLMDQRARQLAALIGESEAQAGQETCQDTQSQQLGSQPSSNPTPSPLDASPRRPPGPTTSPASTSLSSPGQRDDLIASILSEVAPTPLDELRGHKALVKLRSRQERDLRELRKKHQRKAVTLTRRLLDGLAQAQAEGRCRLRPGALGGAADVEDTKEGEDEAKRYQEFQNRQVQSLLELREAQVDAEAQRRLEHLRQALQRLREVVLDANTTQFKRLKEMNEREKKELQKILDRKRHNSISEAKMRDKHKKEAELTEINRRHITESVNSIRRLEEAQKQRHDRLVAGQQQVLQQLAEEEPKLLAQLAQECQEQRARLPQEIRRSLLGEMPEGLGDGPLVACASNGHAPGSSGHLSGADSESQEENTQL

## CN(C(=O)COc1ccccc1C(=O)NCCOc1ccccc1)c1ccccc1
[1]
  AC50: 12.8 µM (active)
HEK293 [2]
  IC50: 3.42 µM (active)
HEK293 [3]
  EC50: 5.76 µM (active)
[4]
  AC50: 51.9 µM (active)
[5]
  AC50: 4.23 µM (active)
[6]
  AC50: 15.9 µM (active)
[7]
  AC50: 11.2 µM (active)
HEK293 [8]
  IC50: 11.2 µM (active)
[9]
  AC50: 1.57 µM (active)
[10]
  EC50: 7.78 µM (active)
HEK293 [11]
  IC50: 3.82 µM (active)
[12]
  EC50: 17.9 µM (active)
[13]
  AC50: 32.7 µM (active)
[14]
  IC50: > 122 µM (inactive)
HEK293 [15]
  IC50: 4.32 µM (active)
[16]
  AC50: 20.8 µM (active)
[17]
  IC50: > 122 µM (inactive)

## COC(=O)C1=C(c2cc3ccccc3s2)C[C@@H]2CC[C@H]1N2C(=O)NCc1ccc(C(F)(F)F)cc1
[18]
  IC50: > 7.72 µM (active)
[19]
  EC50: 8.21 µM (active)
[20]
  EC50: 3.12 µM (active)
[21]
  IC50: > 69.5 µM (inactive)

## O=c1c2cc([N+](=O)[O-])ccc2nc(CN2CCOCC2)n1-c1ccccc1F
[22]
  IC50: 9.6 µM (active)

## CCn1ccnc1CN(C)C(=O)CC1C(=O)NCCN1Cc1c(F)cccc1Cl (stereo unspecified)
[23]
  AC50: > 30 µM (inactive)

## Oc1ccc(Cl)cc1-c1cc(-c2cccc(Br)c2)[nH]n1
[24]
  IC50: > 69.5 µM (inactive)
[25]
  AC50: 5.22 µM (active)
Streptococcus
  EC50: 6.65 µM (active)
Streptokinase A
  EC50: > 150 µM (not active)
[26]
  EC50: 5.6 µM (active)

## CC(=O)Nc1ccc(-c2ccnc3c2CC(C(=O)NCc2ccco2)O3)cc1 (stereo unspecified)
[27]
  IC50: > 67.5 µM (inactive)
cells
  IC50: > 67.5 µM (inactive)

## C[C@@H]1CN([C@H](C)CO)C(=O)c2cc(NC(=O)C3CCOCC3)ccc2O[C@H]1CN(C)S(=O)(=O)c1ccc(Cl)cc1
[28]
  AC50: 34.8 µM (active)
[29]
  AC50: 34.2 µM (active)

## COC(=O)C1=C(C)N(Cc2ccc(Cl)cc2)C(=S)NC1c1cccc(OC)c1 (stereo unspecified)
HEK293 [30]
  AC50: 11.4 µM (active)
Cryptococcus neoformans
  AC50: 57.5 µM (active)
[31]
  AC50: 11.4 µM (active)
HeLa
  AC50: > 52 µM (inactive)
